Reference: PubChem BioAssay (NCI)
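Step 1: Grow cells in 96-well plates. Step 2: Expose to compound for 48 hours at 5 concentrations. Step 3: Interpolate endpoints linearly; if unreached, use highest concentration. TGI: total growth inhibition.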

How the values were obtained:
Test in all cases: NCI-60 cell line screen, 48 h
[1] = test system: 786-0 renal
[2] = test system: CCRF-CEM leukemia
[3] = test system: COLO 205 colon
[4] = test system: EKVX NSCLC
[5] = test system: HCC-2998 colon
[6] = test system: HL-60(TB) leukemia
[7] = test system: HOP-62 NSCLC
[8] = test system: HT29 colon
[9] = test system: KM12 colon
[10] = test system: MDA-MB-435
[11] = test system: MDA-N
[12] = test system: MOLT-4 leukemia
[13] = test system: NCI-H23 lung
[14] = test system: PC-3 prostate
[15] = test system: RPMI-8226 leukemia
[16] = test system: SF-268 CNS
[17] = test system: SN12C renal
[18] = test system: UACC-257 melanoma
[19] = test system: SK-OV-3 ovarian
[20] = test system: RXF 393 renal

Measured: TGI

O=c1oc2ccccc2c(O)c1C(c1ccc(-c2ccccc2)cc1)c1c(O)c2ccccc2oc1=O
36.1 µM: [11]
51.7 µM: [6]
29 µM: [5]
46.9 µM: [10]
93.8 µM: [2]
38.1 µM: [9]
33.7 µM: [17]
56.8 µM: [13]
55.4 µM: [7]
57.1 µM: [16]
38.3 µM: [8]
> 100 µM: [3] | [4] | [12] | [18]
56.4 µM: [14]
81.3 µM: [1]
95.8 µM: [15]

O=c1[nH][nH]c(=O)n1/N=C/c1ccccc1
not listed: [5] | [20]
> 100 µM: all other assays above

C=CCN1C[C@H](C)N([C@H](c2ccc(C(=O)N(CC)CC)cc2)c2cccc(OC)c2)C[C@H]1C
99.5 µM: [12]
52.3 µM: [18]
38.7 µM: [3]
64.9 µM: [6]
not listed: [2] | [5] | [20]
> 100 µM: all other assays above

c1ccc(Cn2c(-c3ccc(-c4ccccc4)cc3)cc3ccccc32)cc1
not listed: [20]
> 100 µM: all other assays above

OCCCCn1cc(Cn2ncc3c(NCc4ccccc4)ncnc32)nn1
not listed: [6]
> 100 µM: all other assays above

CCC/C(Cl)=N/OC(NC(=O)OCC)(C(F)(F)F)C(F)(F)F
36.6 µM: [16]
37.7 µM: [18]
36.9 µM: [3]
47.2 µM: [8]
48.2 µM: [6]
> 100 µM: [7] | [9] | [14]
45 µM: [4]
71.4 µM: [12]
33.6 µM: [20]
35.9 µM: [11]
61.4 µM: [13]
32.6 µM: [17]
56.1 µM: [15]
87.9 µM: [2]
34.8 µM: [10]
31.2 µM: [1]

CCNC1=C(NC(=O)c2ccccc2)C(=O)c2ccccc2C1=O
64.5 µM: [18]
82.5 µM: [8]
19.4 µM: [10]
74.1 µM: [20]
78.9 µM: [14]
24.1 µM: [11]
not listed: [4] | [16]
> 100 µM: all other assays above

Cc1cc(S(=O)(=O)Nc2nnc3ccccn23)c(S)cc1Cl
not listed: [2] | [16] | [19] | [20]
> 100 µM: all other assays above

COC(=O)c1c(C)c2c(c(C)c1C(=O)OC)-c1c(C)ccc3ccc(C)c-2c13
> 50.7 µM: [6]
29.6 µM: [8]
not listed: [5] | [13]
> 100 µM: all other assays above

COc1ccc(N=Nc2ccc3oc(=O)c(C(=O)Nc4ccccc4C)cc3c2)cc1
not listed: [2] | [6]
> 10 µM: all other assays above

CCOC(=O)C1C(c2ccc(OC)cc2)c2c([nH][nH]c2=O)CC1(C)O (stereo not given)
not listed: [19] | [20]
> 100 µM: all other assays above

CS(=O)(=O)OCCCSCCSCCCOS(C)(=O)=O
not listed: [15] | [20]
> 100 µM: all other assays above
